Read-outs that look alike come from different tables or passages of the source.
Experiments:
[1] = biological target: T1, human mu opioid receptors (CHO-hMOR cells) (Homo sapiens, UniProt P35372); assay: Adenylyl cyclase assay, CHO-hMOR cells (control not expressing hCB2Rs); type: cell-based; details: 10 μM
T1 construct: expressed in transfected cells; host or cells: CHO cells (CHO-hMOR), membranes or intact cells

[2] = biological target: T2, human cannabinoid type-1 receptors (hCB1) (Homo sapiens, UniProt P21554); assay: Antagonism of CP-55,940 inhibition of adenylyl cyclase, intact CHO-hCB1 cells; type: cell-based; details: for IMAX of CP-55,940 after pre-incubation with the drug: CHO-hCB1 cells, pre-incubation 30 min: OSP, NAF, BAZ 10 μM, RAL 2 μM, AM-281 1 μM
T2 construct: host or cells: CHO cells (CHO-hCB1), membranes or intact cells
T2 sequence (P21554 whole entry): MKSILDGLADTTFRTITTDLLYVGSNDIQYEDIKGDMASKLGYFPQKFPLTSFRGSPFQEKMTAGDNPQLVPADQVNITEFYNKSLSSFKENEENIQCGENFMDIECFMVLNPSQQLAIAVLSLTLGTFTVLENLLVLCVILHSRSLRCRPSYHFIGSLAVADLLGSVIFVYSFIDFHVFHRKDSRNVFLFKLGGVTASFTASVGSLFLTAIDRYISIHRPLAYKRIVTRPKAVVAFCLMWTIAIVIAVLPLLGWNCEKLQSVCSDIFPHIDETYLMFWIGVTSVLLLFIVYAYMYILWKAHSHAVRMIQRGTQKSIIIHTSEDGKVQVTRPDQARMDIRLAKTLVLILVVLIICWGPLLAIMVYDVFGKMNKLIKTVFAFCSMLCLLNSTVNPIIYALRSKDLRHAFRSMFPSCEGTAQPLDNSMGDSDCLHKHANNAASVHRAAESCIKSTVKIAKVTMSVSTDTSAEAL
Procedure: Briefly, cells cultured between passages 4 and 15 were seeded into 24-well plates at a concentration of 6.5 million cells per plate and incubated overnight in a humidified incubator maintained at 37°C and 5% CO2. Growth media was removed the next day and replaced with media containing […] [^3H]adenine, 0.9g/L NaCl, and 0.5 mM isobutyl-methyl-xanthine (IBMX) for 2–3 h. Radioactive media was then removed and each well treated with 0.5 ml of varying concentrations of SERM compounds in a Krebs-Ringer-HEPES solution (10 mM HEPES, 110 mM NaCl, 25 mM Glucose, 55 mM Sucrose, 5 mM KCl, 1 mM MgCl2, 1.8 mM CaCl2, pH 7.4) containing 0.5 mM IBMX and 10 μM forskolin. Plates were then floated in a 37°C water bath for 15 min before reactions were terminated by addition of 50 μL of 2.2 N HCl to each well.
Reactions were then terminated by adding 50 μL of 2.2 N HCl to each well. [^3H]cAMP was isolated using alumina column chromatography and radioactivity quantified following addition of 10 mls of scintiverseTM BD cocktail scintillation fluid (Fisher Scientific, Pittsburg, PA, USA) by liquid scintillation spectrophotometry (Tri Carb 2100 TR Liquid Scintillation Analyzer, Packard Instrument Company, Meriden, CT, USA).
(§1) Statistical analyses were conducted by utilizing GraphPad Prism v6.0g (GraphPad Software, Inc.; San Diego, CA, USA). IC50 values from competition receptor binding curves were derived by non-linear regression. […] Non-linear regression analysis of concentration-effect curves was also used to determine potency (ED50 or IC50) and efficacy (Emax or Imax) for modulation of GTPγS and adenylyl cyclase activity, respectively. All IC50, EC50, Ki, and Kb values were converted to pEC50, pIC50, pKi, and pKb values in order to permit use of parametric statistical analyses. For all experiments comparing three or more values, an one-way ANOVA was employed, followed by Dunnett’s or Tukey’s post hoc tests. For comparisons of two values, an unpaired t-test was utilized. To determine significant radioligand displacement or modulation of G-protein activity compared to basal levels, a one-sample t-test was employed.
IC50 and Kb values were converted to pIC50 and pKb values (pIC50 = -Log[IC50] or pKb = -Log[Kb], respectively) to allow use of parametric statistics for comparison.

[3] = biological target: T2, human cannabinoid type-1 receptors (hCB1); assay: Competition receptor binding with [3H]CP-55,940, CHO-hCB1 membranes
Procedure: In short, pellets were thawed on ice, combined in a 40 ml glass Dounce homogenizer and homogenized in 20 ml of cold buffer (50 mM HEPES at pH 7.4, 3 mM MgCl2, and 1 mM EGTA) using 10 strokes. Homogenates were then centrifuged at 40,000 × g for 10 min at 4°C. After discarding the supernatant, pellets were homogenized and centrifuged twice more. Final pellets were re-suspended in ice-cold 50 mM HEPES, pH 7.4, aliquoted and stored at -80°C for future use. Protein concentration was determined the same day, prior to freezing, using BCA^TM Protein Assay (Thermo Fisher Scientific, Waltham, MA, USA).
The final volume of each sample was 1 ml, containing 50 mM Tris-HCl buffer (pH 7.4), 0.05% bovine serum albumin, 5 mM MgCl2, increasing concentrations of non-radioactive competing SERM ligands, and either 100 μg of CHO-hCB1 or 50 μg of CHO-hCB2 membrane homogenates. […] Each sample condition was performed in triplicate and allowed to reach equilibrium at room temperature for 90 min. Reactions were terminated by rapid vacuum filtration through Whatman GF/B glass fiber filters (Brandel, Inc.), followed by four 4 ml washes of ice-cold filtration buffer (50 mM Tris at pH 7.4 and 0.05% BSA). Filter punches of individual samples were placed in scintillation vials containing 4 mls of ScintiverseTM BD cocktail scintillation fluid (Fisher Scientific, Pittsburg, PA, USA). Final counts were determined using liquid scintillation spectrophotometry (Tri Carb 2100 TR Liquid Scintillation Analyzer, Packard Instrument Company, Meriden, CT, USA) after overnight incubation.
as §1
For initial comparison of potential SERM binding to CBRs, 14 commercially available compounds from 5 structurally distinct classes (Figure 1) were subjected to a radioligand binding screen (Figure 2).

[4] = biological target: T3, human mu opioid receptors (hMOR) (Homo sapiens, UniProt P35372); assay: [35S]GTPγS binding, CHO-hMOR membranes (control devoid of CBRs); type: biochemical; details: 10 μM
T3 construct: expressed in transfected cells; host or cells: CHO cells (CHO-hMOR), membranes or intact cells
T3 sequence (P35372 whole entry): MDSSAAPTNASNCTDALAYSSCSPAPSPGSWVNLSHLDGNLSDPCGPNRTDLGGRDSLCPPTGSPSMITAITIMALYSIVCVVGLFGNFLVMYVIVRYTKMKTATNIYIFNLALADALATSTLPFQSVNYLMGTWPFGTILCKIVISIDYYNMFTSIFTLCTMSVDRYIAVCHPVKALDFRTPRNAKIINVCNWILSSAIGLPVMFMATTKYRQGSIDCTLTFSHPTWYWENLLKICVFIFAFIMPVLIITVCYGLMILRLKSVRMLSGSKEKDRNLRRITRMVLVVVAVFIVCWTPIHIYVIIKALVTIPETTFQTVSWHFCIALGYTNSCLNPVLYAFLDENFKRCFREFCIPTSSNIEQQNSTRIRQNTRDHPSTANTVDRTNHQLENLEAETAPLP
Procedure: Non-specific binding was defined by radioactivity remaining in the presence of 10 μM of non-radioactive GTPγS. All reactions were incubated for 30 min at 30°C, terminated by filtration through Whatman GF/B glass fiber filters (Brandel, Inc.) and followed by four 4 ml washes of ice cold filtration buffer (50 mM HEPES, pH 7.4) containing 0.1% bovine serum albumin. Filter punches of individual samples were placed in scintillation vials containing 4 mls of ScintiverseTM BD cocktail scintillation fluid (Fisher Scientific, Pittsburg, PA, USA). Final counts were determined using liquid scintillation spectrophotometry (Tri Carb 2100 TR Liquid Scintillation Analyzer, Packard Instrument Company, Meriden, CT, USA) after overnight incubation.

T1 sequence (P35372 whole entry): as above

Row | SMILES | effect on basal cAMP levels, CHO-hMOR cells [1] | IMAX of CP-55,940 after pre-incubation with the drug [2] | Kb ([2]; read-out: Kb (antagonist dissociation constant), CHO-hCB1) | Ki ([3]; CHO-hCB1 membranes, Cheng-Prusoff from IC50) | Selectivity (CB1/CB2) ([3]; ratio of Ki hCB1 / Ki hCB2) | Kb [2] | decrease in basal G-protein activity, CHO-hMOR [4] | Ki [3] | displacement of [3H]CP-55,940 from hCB1Rs ([3]; single 1 μM concentration, 0.2 nM [3H]CP-55,940, CHO-hCB1)
1 | Cc1c(-c2ccc(O)cc2)n(Cc2ccc(OCCN3CCCCCC3)cc2)c2ccc(O)cc12 [BAZ, bazedoxifene] | only slightly altered |  |  |  |  |  |  |  | 
2 | COc1ccc2c(c1)CCC(c1ccccc1)=C2c1ccc(OCCN2CCCC2)cc1 [NAF, nafoxidine] |  | 38.3 ± 1.7% | 1160 nM | 957 nM | 0.74 |  |  |  | 
3 | OCCOc1ccc(/C(=C(/CCCl)c2ccccc2)c2ccccc2)cc1 [OSP, ospemifene] |  | 43.8 ± 2.7% |  |  |  | 173 nM | 11% | 753 nM | approximately 50%

Source: paper PMC5177629, “Selective Estrogen Receptor Modulators: Cannabinoid Receptor Inverse Agonists with Differential CB1 and CB2 Selectivity” (Frontiers in Pharmacology, 2016)
